The results in this text go back to patent US20090311246A1, “Method of Enhancing Remyelination in Demyelinating Diseases of the Central Nervous System” (priority 2008, published 2009).

The structures appear in SMILES notation. Entries after “also recorded” stand apart in the source; their conditions may differ.

Assay [1] deals with sera from SFV-infected B6 mice. The class given is binding. How it is done:
To measure the antibody response of both WT and γδ KO mice against SFV and two of the peptides of the SFV envelope protein, E2, an indirect ELISA was performed. Sera were pooled from 4-6 SFV-infected WT, and 3 KO, mice on days 0, 7, 14, 21 and 35 pi. Briefly, Immunolon 2HB 96 well microtiter plates (VWR, Bridge Port, N.J.) were coated with 1 μg/well of each antigen in 100 μl/well carbonate buffer overnight at room temperature. After washing, the plates were blocked and serum samples were added. […] After washing, biotinylated goat anti-mouse Igs (BD Pharmingen, Torreyana, Calif.), Strepavidin conjugated to Horse Radish Peroxidase (Vector Laboratories, Burlingame, Calif.), and OPD substrate (Sigma, St. Louis, Mo.) were used, as previously described (4, 9). […] Values were considered to be positive when they were >0.3 OD units and exceeded the mean value plus three standard deviations for antibody response on day 0 pi of mice of the same strain. […]
In some instances day 0 OD values were high, thus making the differences appear small. Therefore, to account for such discrepancy, we also determined the ratio of the highest day (day 15 or 21) over day 0.

Assay [2] concerns B6 mice with EAE. Put plainly: Clinical scores of E2 137-151 peptide-treated mice with MOG 35-55 induced EAE. The class given is in vivo. The conditions noted are these: for Disease severity, treatment from D12 post-EAE induction, compared with untreated EAE mice: 0.5 mg/injection sc in IFA on D12, 17, 22, peak D19. How it is done:
FIG. 6 Comparison of Average Clinical Scores (±SEM) of E2 137-151 peptide-treated, and untreated B6 mice with EAE, on different days post treatment. Data shown is the average of three experiments, total numbers of mice were 21 EAE and 22 treated EAE mice. All mice were immunized subcutaneously with myelin oligodendrocyte glycoprotein (MOG) peptide 35-55 in CFA, on D0. Treated EAE mice received subcutaneous injection of E2-137 peptide (0.5 mg/injection or 25 mg/kg, based on the average weight of 20 g/mouse) in IFA, on day 12 post EAE induction. Additional inoculations of E2-137 peptide/IFA were performed twice more with 5-day intervals. Following the injection, animals were observed daily for clinical manifestations of disease and were scored on a scale of 0-VI, as above. Clinical scores of sacrificed and dead animals have been considered in average calculation till the end of the experiments on day 39.
Method—To induce EAE, fourteen 7-8 wk old B6 mice (Jackson Laboratories, Bar Harbor, Mass.) were each inoculated, subcutaneously, with […] MOG 35-55 in Complete Freund's Adjuvant (CFA) or CFA only (as control), followed by two injections of 100 ng of pertusis toxin, 48 hours apart (9, 73). Eight mice in EAE-induced group were immunized subcutaneously with E2-137-151 (0.5 mg/injection or 25 mg/kg, based on the average weight of 20 g/mouse) in IFA, one day after MOG inoculation. One additional inoculation of E2 137-151/IFA was performed 5 days later. Animals were observed daily for clinical manifestations of disease and were scored on a scale of 0-VI. 0=no abnormality; I=mild hind limb weakness (some difficulty righting themselves when turned on their back); II=moderate hind limb weakness, sometimes associated with floppy tail; III=weakness of hind limbs accompanied by some forelimb weakness, sometimes more marked on one limb or one side, but not complete paralysis; IV=hind limb paresis accompanied by mild forelimb weakness; V=paralysis of hind limbs, associated with moderate forelimb weakness; and VI-quadriplegia, moribund.
Result—Mice were immunized with MOG 35-55 in CFA, to induce EAE as described above. In the first two experiments, mice were divided into two groups, untreated, and treated after EAE induction. The treated EAE group received E2-137-151 peptide in IFA, subcutaneously on D5 post-EAE induction, before the signs of clinical disease were apparent.
Next, three experiments were performed with a total number of 21 RAE and 22 late treated EAE mice. […] EAE mice were further treated with E2-137-151 peptide on days 17 and 22 post-EAE induction. […] Peak of the disease in both RAE and D12 treated EAR mice were on D19 pi.

Assay [3] concerns B6 mice with EAE. The assay is described as follows: Antibody responses (ELISA) of E2 137-151 peptide treated EAE mice. The class given is in vivo. How it is done:
FIG. 7 Comparison of antibody responses (±SEM) of EAE, E2-137-151 peptide treated, and untreated EAE mice to E2-137-151, MOG 35-55 and control peptides. Three experiments were performed with total number of 21 EAE and 22 treated EAE. All mice were immunized subcutaneously with myelin oligodendrocyte glycoprotein (MOG) peptide, 35-55 in CFA, as described above, on D0. EAE mice were treated as described for FIG. 6. All mice were sacrificed at the end of experiment on D39 post immunization.
To measure the antibody response of both WT and γδ KO mice against SFV and two of the peptides of the SFV envelope protein, E2, an indirect ELISA was performed. Sera were pooled from 4-6 SFV-infected WT, and 3 KO, mice on days 0, 7, 14, 21 and 35 pi. Briefly, Immunolon 2HB 96 well microtiter plates (VWR, Bridge Port, N.J.) were coated with 1 μg/well of each antigen in 100 μl/well carbonate buffer overnight at room temperature. After washing, the plates were blocked and serum samples were added. […] After washing, biotinylated goat anti-mouse Igs (BD Pharmingen, Torreyana, Calif.), Strepavidin conjugated to Horse Radish Peroxidase (Vector Laboratories, Burlingame, Calif.), and OPD substrate (Sigma, St. Louis, Mo.) were used, as previously described (4, 9). […] Values were considered to be positive when they were >0.3 OD units and exceeded the mean value plus three standard deviations for antibody response on day 0 pi of mice of the same strain.
Antibody Responses of RAE and E2 137-151 treated EAE mice to E2-137 and control peptide (E2 115-129) were measured by ELISA at the end of experiment on D39 pi.

In the case of `CC[C@H](C)[C@H](NC(=O)[C@H](CCC(=O)O)NC(=O)[C@H](CCCCN)NC(=O)CNC(=O)[C@H](Cc1ccc(O)cc1)NC(=O)[C@H](Cc1c[nH]cn1)NC(=O)[C@@H]1CCCN1C(=O)[C@H](CCCNC(=N)N)NC(=O)[C@@H](NC(=O)[C@@H](NC(=O)[C@H](Cc1ccccc1)NC(=O)[C@H](CCCCN)NC(=O)[C@H](CCC(=O)O)NC(=O)[C@H](CCCNC(=N)N)NC(=O)CN)[C@@H](C)O)[C@@H](C)CC)C(=O)O` [E2 137-151], the “Dh / D0 (Ratio)” value in assay [1] (OD of highest day (day 15 or 21) over day 0, SFV-infected sera) was determined as 3.96. Further, the “Dh−D0 (difference)” value in assay [1] (OD of highest day minus day 0, SFV-infected sera) is recorded as 0.406. Further, the “Net change in the levels of antibody (ΔOD), D7-9” value in assay [1] (SFV-infected mice sera, days 7-9 pi, day 0 OD subtracted) is 0.84 ± 0.39 ΔOD. Also, in assay [1] (SFV-infected mice sera, days 14-16 pi, day 0 OD subtracted), the “Net change in the levels of antibody (ΔOD), D14-16” value was 1.83 ± 0.47 ΔOD. In addition, in assay [1] (SFV-infected mice sera, days 21-23 pi, day 0 OD subtracted), the “Net change in the levels of antibody (ΔOD), D21-23” value is 2.19 ± 0.76 ΔOD. Further, the “Net change in the levels of antibody (ΔOD), D31-35” value in assay [1] (SFV-infected mice sera, days 31-35 pi, day 0 OD subtracted) is recorded as 2.08 ± 0.67 ΔOD. In addition, the “Reactivity of sera from SFV-infected B6 mice with the antigen in ELISA” value in assay [1] (vs day 0) is given as “reacted”. For the same compound, the “Disease severity, treatment from D12 post-EAE induction, compared with untreated EAE mice” value in assay [2] is recorded as “significantly less severe disease on peak day”; in assay [2] (listed as E2 137-151 peptide), “significantly suppressed the clinical disease; also recorded: improved clinical EAE”; in assay [2] (listed as E2-137 peptide), “Average disease severity in EAE mice was significantly higher than treated EAE mice”. In addition, the “Clinical disease score at the peak of the disease on D19” value in assay [2] (19 treated EAE mice (of 22), scale 0-VI) is under 1.5. Moreover, in assay [2] (E2-137-151 peptide in IFA sc before clinical signs), the “Clinical signs of EAE, treatment on D5 post-EAE induction” value is reported as “absence of clinical signs of EAE”. Also, the “Antibody response to E2-137, treated compared with untreated EAE mice” value in assay [3] (ELISA, D39 pi) is “significantly higher than untreated EAE mice”; in assay [3] (ELISA, D39 pi, listed as E2-137 peptide), “treated>untreated EAE mice”. Further, the “Antibody responses to MOG 35-55 and control peptide, treated compared with untreated EAE mice” value in assay [3] (ELISA, D39 pi) is given as “no significant difference”. For the same compound, in assay [3] (preliminary experiments), the “Reactivity of sera from treated EAE mice with MBP 54-68” value was “also reacted with MBP 54-68”.
